From publication PMC2174006 (The Journal of Cell Biology, 2002)

Molecular target: T1, Rab32 (Homo sapiens, UniProt Q13637)
T1 sequence (Q13637 1-225): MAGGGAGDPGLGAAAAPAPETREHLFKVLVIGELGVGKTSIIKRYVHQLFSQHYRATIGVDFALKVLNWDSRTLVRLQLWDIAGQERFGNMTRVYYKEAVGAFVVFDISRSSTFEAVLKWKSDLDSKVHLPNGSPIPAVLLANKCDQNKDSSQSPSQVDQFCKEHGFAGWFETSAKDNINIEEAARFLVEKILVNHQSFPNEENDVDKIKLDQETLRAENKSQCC
Experiment: radiolabelled nucleotide dissociation
Assay type: binding
Conditions: labelled compound ([3H]GDP); pH 7.5, 50 mM Tris-HCl, high magnesium; GST fusion

Nc1nc2c(ncn2[C@@H]2O[C@H](COP(=O)(O)OP(=O)(O)O)[C@@H](O)[C@H]2O)c(=O)[nH]1 [GDP]
t 1/2 (dissociation): 7.5 min
